Results reported in paper PMC12720098, “Prolintane analogs as hybrid monoamine transporter ligands: Structural determinants and species differences” (The Journal of Biological Chemistry, 2025).
Like-named read-outs stand apart in the source and are kept apart here.

Legend:
rDAT = molecular target: T1, rDAT (Rattus norvegicus, UniProt P23977); test: Uptake inhibition assay ([3H]dopamine) in rat brain synaptosomes; format: biochemical; settings: for DAT/SERT ratio: rat isoform (r), 1/DAT IC50 / 1/SERT IC50
T1 construct: As a means to evaluate transporter activity of prolintane analogs in native tissue preparation; from tissue; host or cells: rat caudate synaptosomes
Method: (§1) Rats were killed by CO2 narcosis and decapitated, then synaptosomes were prepared from brains using standard procedures. In brief, synaptosomes were prepared from caudate tissue for rat DAT (rDAT) assays, or from whole brain minus caudate and cerebellum for rat NET (rNET) and rat SERT (rSERT) assays. Brain tissue was homogenized in ice-cold 10% sucrose followed by centrifugation at 1000g for 10 min. The resulting supernatant containing crude synaptosomes was kept on ice until use in uptake or release procedures. Uptake inhibition and release assays were carried out as previously described ([62], [63]).
(§2) For uptake inhibition assays, 5 nM [^3H]dopamine, 10 nM [^3H]norepinephrine, or 5 nM [^3H]5-HT was used as the radiolabeled transmitter for rDAT, rNET, or rSERT, respectively. To optimize uptake for a single transporter, unlabeled blockers were included that prevented uptake of [^3H]transmitter by competing transporters: 50 nM GBR 12935 was added to NET and SERT assays to block DAT, 100 nM nomifensine was added to SERT assays to block NET. Uptake assays were initiated by adding 100 μl of tissue to 900 μl Krebs-phosphate buffer (126 mM NaCl, 2.4 mM KCl, 0.83 mM CaCl2, 0.8 mM MgCl2, 0.5 mM KH2PO4, 0.5 mM Na2SO4, 11.1 mM glucose, 0.05 mM pargyline, 1 mg/ml bovine serum albumin, and 1 mg/ml ascorbic acid, pH 7.4) containing test drug and [^3H]transmitter. Uptake assays were terminated by rapid vacuum filtration, and retained radioactivity was quantified with liquid scintillation counting.
(§3) Effects of test drugs on release and uptake inhibition were analyzed by nonlinear regression using GraphPad Prism 9 (GraphPad Scientific, San Diego, CA, USA). Concentration–response values for the uptake inhibition and release were fit to the equation, Y(x)=Ymin+Ymax−Ymin/1+10^((LogP50−LogX)·n) , where x is the concentration of the compound tested, Y(x) is the response measured, Ymax is the maximal response, P50 is either IC50 (the concentration that yields half-maximal uptake inhibition response) or EC50 (the concentration that yields half-maximal release response), and n is the Hill slope parameter.

rNET = molecular target: T2, rNET (Rattus norvegicus, UniProt Q63380); test: Uptake inhibition assay ([3H]norepinephrine) in rat brain synaptosomes; format: biochemical
T2 construct: As a means to evaluate transporter activity of prolintane analogs in native tissue preparation; from tissue; host or cells: rat brain synaptosomes (whole brain minus caudate and cerebellum)
Method: as §1, §2, §3

hSERT [1] = molecular target: T3, hSERT (Homo sapiens, UniProt P31645); format: cell-based; settings: batch release, % efflux of total uptake, compounds approximately at IC50 concentration
T3 construct: expressed in transfected cells
Method: Batch release assays were performed as described previously ([44]). In brief, HEK293 cells stably expressing monoamine transporters were seeded similar to the procedure used for uptake inhibition assays. A day after seeding cells were pre-loaded with 50 μl/well 0.015 μM [^3H]MPP^+ (hDAT, hNET), or 0.08 μM [^3H]5-HT (hSERT) for 20 min at 37 °C. Then cells were washed four times for 3 to 4 min each and further incubated with KHB or KHB + monensin. After 10 min of incubation, two (screening) to four (full traces; hSERT) 2 min incubations were performed to establish a baseline release without substance. […] Each fraction was transferred to an empty well in the 96-well plate. For screening, a known inhibitor (hDAT, hNET: 50 μM GBR12909) and releaser (hDAT, hNET: 10 μM S-(+)-amphetamine) were used as controls. Ultima Gold XR scintillation cocktail was added to the remaining cells, and each well contained a release fraction. The counted radioactivity in the respective fraction was expressed as a percentage of total radioactivity at the start of the fraction.
(§4) Half-maximal inhibitory concentrations (IC50) were obtained from fitting a sigmoidal dose–response ( Y=Bottom+Top−Bottom/1+10^((LogIC50−X)·HillSlope) ) in GraphPad Prism 10.3.1 (GraphPad Software Inc.). Uptake inhibition data were evaluated by one-way ANOVA followed by Tukey's multiple comparisons test. Release data were analyzed using a two-way ANOVA (batch release) or a mixed-effects model with Geisser-Greenhouse correction (time-dependent traces) employing Šidák correction for comparing differences between compounds with or without the addition of monensin.

hSERT [2] = molecular target: T3, hSERT; format: cell-based; settings: for hSERT efflux ± Mon, mean diff: superfusion; for Mean diff, hSERT efflux ± Mon (Šídák's multiple comparisons test): drug alone vs drug + monensin (Mon)
Method: A day prior to the experiment, HEK293 cells stably expressing hSERT or rat SERT (rSERT) were seeded at a density of 100,000 cells per channel into 6 channel flow ibidi slides (Gräfelfing, Germany). On the day of the experiments, cells were preloaded with 0.1 μM [^3H]5-HT at 37 °C, 5% CO2 for 20 min. Subsequently, the slides were transferred to the superfusion apparatus ([59]). Cells were then washed with KHB for 15 min under a constant flow of 0.5 ml/min. Fractions were collected every 2 min in 8 ml vials containing 2 ml scintillation cocktail. Collection began with three baseline fractions using KHB, followed by four additional basal release fractions with KHB, either with or without 10 μM monensin. […] To assess residual radioactivity within the cells, they were lysed with 1% sodium dodecyl sulfate (SDS), and three final fractions were obtained. The measured tritiated substrate in each fraction was expressed as a percentage of the initial tritiated substrate present at the start of that fraction.
as §4

T1 sequence (P23977 whole entry, canonical isoform): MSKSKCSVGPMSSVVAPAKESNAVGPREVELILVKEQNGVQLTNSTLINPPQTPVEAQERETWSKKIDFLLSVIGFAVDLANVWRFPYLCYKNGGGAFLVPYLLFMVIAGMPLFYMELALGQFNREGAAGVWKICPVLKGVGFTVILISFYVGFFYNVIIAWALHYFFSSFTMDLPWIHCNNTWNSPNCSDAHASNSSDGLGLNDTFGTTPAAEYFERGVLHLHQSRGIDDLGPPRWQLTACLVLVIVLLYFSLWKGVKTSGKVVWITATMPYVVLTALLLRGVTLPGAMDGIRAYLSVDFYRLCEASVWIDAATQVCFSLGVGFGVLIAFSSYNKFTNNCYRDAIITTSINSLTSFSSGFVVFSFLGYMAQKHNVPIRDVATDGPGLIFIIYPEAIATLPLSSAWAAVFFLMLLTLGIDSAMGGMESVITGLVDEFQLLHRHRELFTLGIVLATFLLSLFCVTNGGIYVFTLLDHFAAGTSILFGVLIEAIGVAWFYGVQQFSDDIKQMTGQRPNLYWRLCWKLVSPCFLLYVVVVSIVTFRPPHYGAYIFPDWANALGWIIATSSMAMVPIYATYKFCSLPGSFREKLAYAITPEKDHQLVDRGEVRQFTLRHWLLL
T2 sequence (Q63380 1-617): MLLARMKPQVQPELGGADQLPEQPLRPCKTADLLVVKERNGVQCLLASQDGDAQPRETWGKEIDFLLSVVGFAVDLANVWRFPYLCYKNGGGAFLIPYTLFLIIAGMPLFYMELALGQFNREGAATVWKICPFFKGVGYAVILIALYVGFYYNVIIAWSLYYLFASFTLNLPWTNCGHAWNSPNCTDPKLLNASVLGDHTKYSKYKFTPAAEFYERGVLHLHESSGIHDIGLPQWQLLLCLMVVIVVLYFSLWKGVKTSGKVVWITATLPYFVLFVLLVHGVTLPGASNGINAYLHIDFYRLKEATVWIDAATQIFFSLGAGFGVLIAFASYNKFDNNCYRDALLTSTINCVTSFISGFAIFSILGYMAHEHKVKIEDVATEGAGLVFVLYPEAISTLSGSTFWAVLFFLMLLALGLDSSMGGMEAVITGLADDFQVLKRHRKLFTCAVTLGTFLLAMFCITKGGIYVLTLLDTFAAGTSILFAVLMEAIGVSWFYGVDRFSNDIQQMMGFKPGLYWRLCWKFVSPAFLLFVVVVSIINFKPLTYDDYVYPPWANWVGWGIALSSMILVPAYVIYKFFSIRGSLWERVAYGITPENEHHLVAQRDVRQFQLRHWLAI
T3 sequence (P31645 whole entry): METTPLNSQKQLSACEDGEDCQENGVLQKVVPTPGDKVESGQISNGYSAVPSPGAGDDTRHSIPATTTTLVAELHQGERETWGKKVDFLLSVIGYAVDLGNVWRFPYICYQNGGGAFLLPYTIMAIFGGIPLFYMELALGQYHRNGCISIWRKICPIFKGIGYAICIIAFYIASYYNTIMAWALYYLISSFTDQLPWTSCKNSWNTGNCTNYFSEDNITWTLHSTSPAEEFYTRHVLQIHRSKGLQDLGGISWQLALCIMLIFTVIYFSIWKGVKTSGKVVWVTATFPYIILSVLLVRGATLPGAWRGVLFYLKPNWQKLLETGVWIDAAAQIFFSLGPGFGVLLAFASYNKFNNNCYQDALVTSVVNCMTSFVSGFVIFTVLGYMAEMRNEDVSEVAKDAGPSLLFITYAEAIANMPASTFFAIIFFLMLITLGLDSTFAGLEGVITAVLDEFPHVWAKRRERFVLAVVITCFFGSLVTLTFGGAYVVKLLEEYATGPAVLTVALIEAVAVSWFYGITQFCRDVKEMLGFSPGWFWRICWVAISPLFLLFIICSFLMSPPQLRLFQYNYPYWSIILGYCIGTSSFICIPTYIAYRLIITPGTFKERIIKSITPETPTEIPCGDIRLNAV

Compound	IC50 (rDAT)	DAT/SERT ratio (rDAT)	IC50 (rNET)	hSERT-mediated efflux, predicted (LS) mean diff, No mon - Mon (hSERT [1])	Mean diff, hSERT efflux ± Mon (Šídák's multiple comparisons test) (hSERT [2]; Row 1 (time fraction))	Mean diff, hSERT efflux ± Mon (Šídák's multiple comparisons test) (hSERT [2]; Row 2 (time fraction))	Mean diff, hSERT efflux ± Mon (Šídák's multiple comparisons test) (hSERT [2]; Row 3 (time fraction))	Mean diff, hSERT efflux ± Mon (Šídák's multiple comparisons test) (hSERT [2]; Row 4 (time fraction))	Mean diff, hSERT efflux ± Mon (Šídák's multiple comparisons test) (hSERT [2]; Row 5 (time fraction))	Mean diff, hSERT efflux ± Mon (Šídák's multiple comparisons test) (hSERT [2]; Row 6 (time fraction))	Mean diff, hSERT efflux ± Mon (Šídák's multiple comparisons test) (hSERT [2]; Row 7 (time fraction))	Mean diff, hSERT efflux ± Mon (Šídák's multiple comparisons test) (hSERT [2]; Row 8 (time fraction))	Mean diff, hSERT efflux ± Mon (Šídák's multiple comparisons test) (hSERT [2]; Row 9 (time fraction))	Mean diff, hSERT efflux ± Mon (Šídák's multiple comparisons test) (hSERT [2]; Row 10 (time fraction))	Mean diff, hSERT efflux ± Mon (Šídák's multiple comparisons test) (hSERT [2]; Row 11 (time fraction))	Mean diff, hSERT efflux ± Mon (Šídák's multiple comparisons test) (hSERT [2]; Row 12 (time fraction))	other results
CCCC(Cc1ccccc1)N1CCCC1 (stereo not shown) [Prolintane, 1-(1-phenylpentan-2-yl)pyrrolidine]	0.061 ± 0.006 µM	38	0.039 ± 0.004 µM	-7.218													hSERT efflux ± Mon, mean diff (hSERT [2]; Row 1 (2 min fraction 1, baseline KHB)): 0.02682; hSERT efflux ± Mon, mean diff (hSERT [2]; Row 2 (2 min fraction 2, baseline KHB)): 0.1025; hSERT efflux ± Mon, mean diff (hSERT [2]; Row 3 (2 min fraction 3, baseline KHB)): 0.1806; hSERT efflux ± Mon, mean diff (hSERT [2]; Row 4 (fraction 4, KHB with or without 10 μM monensin)): 0.1203; hSERT efflux ± Mon, mean diff (hSERT [2]; Row 5 (fraction 5, KHB with or without 10 μM monensin)): 0.07151; hSERT efflux ± Mon, mean diff (hSERT [2]; Row 6 (fraction 6, KHB with or without 10 μM monensin)): -0.1392; hSERT efflux ± Mon, mean diff (hSERT [2]; Row 7 (fraction 7, KHB with or without 10 μM monensin)): -0.1744; hSERT efflux ± Mon, mean diff (hSERT [2]; Row 8 (fraction 8, compound at IC50 concentration)): -5.479; hSERT efflux ± Mon, mean diff (hSERT [2]; Row 9 (fraction 9, compound at IC50 concentration)): -6.902; hSERT efflux ± Mon, mean diff (hSERT [2]; Row 10 (fraction 10, compound at IC50 concentration)): -6.703; hSERT efflux ± Mon, mean diff (hSERT [2]; Row 11 (fraction 11, compound at IC50 concentration)): -6.503; hSERT efflux ± Mon, mean diff (hSERT [2]; Row 12 (fraction 12, compound at IC50 concentration)): -6.083
CCCC(Cc1cccc(C)c1)N1CCCC1 (stereo not shown) [3-Methylprolintane, 1-[1-(3-methylphenyl)pentan-2-yl]pyrrolidine]	0.111 ± 0.008 µM	1.25	0.062 ± 0.009 µM	-5.6	0.05456	0.01844	0.02833	0.07733	-0.1496	-0.229	-0.329	-4.546	-6.038	-6.018	-5.904	-5.776	
CCCC(Cc1ccccc1F)N1CCCC1 (stereo not shown) [2-Fluoroprolintane, 1-[1-(2-fluorophenyl)pentan-2-yl]pyrrolidine]	0.117 ± 0.01 µM	19	0.063 ± 0.006 µM	-6.392	-0.05533	-0.01811	-0.031	-0.05989	-0.128	-0.2267	-0.3166	-4.727	-7.079	-7.103	-6.897	-6.561	
CCCC(Cc1ccc(F)cc1)N1CCCC1 (stereo not shown) [4-Fluoroprolintane, 1-[1-(4-fluorophenyl)pentan-2-yl]pyrrolidine]	0.213 ± 0.013 µM	4.2	0.217 ± 0.021 µM	-7.206	-0,0007778	0,02200	0,004889	-0,08044	-0,1983	-0,2323	-0,3017	-8,349	-9,598	-8,382	-7,454	-6,666	
